Test results reported in ChEMBL document CHEMBL1201862, “PubChem BioAssay data set” (2004).
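Cells were grown in 96-well plates and exposed to each compound for 48 hours at five concentrations; endpoints were interpolated linearly between bracketing concentrations, or set to the highest concentration if not reached. GI50: concentration for 50% inhibition of growth.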 Calls of active or inactive are those of the source. No stated cut-off is given here; in the data, active = GI50 up to about 1.1 µM and inactive = higher.

Assays:
Experiment in all cases: growth of human tumour cells (NCI), 48 h
[1] = tested on: SK-MEL-5
[2] = tested on: NCI-H226
[3] = tested on: CCRF-CEM
[4] = tested on: KM12
[5] = tested on: MDA-MB-231
[6] = tested on: CAKI-1
[7] = tested on: SF-295
[8] = tested on: DU-145
[9] = tested on: RXF 393
[10] = tested on: U-251
[11] = tested on: MDA-N
[12] = tested on: SW-620
[13] = tested on: OVCAR-5
[14] = tested on: TK-10
[15] = tested on: OVCAR-4
[16] = tested on: HT-29
[17] = tested on: UACC-62
[18] = tested on: HOP-62
[19] = tested on: SF-539
[20] = tested on: SR

Measured: GI50

O=C(O)CCC(=O)Nc1ccc2ccccc2c1
inactive: [1] > 100 µM | [2] > 100 µM | [3] > 100 µM | [4] > 100 µM | [5] > 100 µM | [6] > 100 µM | [7] > 100 µM | [8] > 100 µM | [9] > 100 µM | [10] > 100 µM | [11] > 100 µM | [12] > 100 µM | [13] > 100 µM | [14] > 100 µM | [15] > 100 µM | [16] > 100 µM | [17] > 100 µM | [18] > 100 µM

Cc1cc2ncn(CC(=O)O)c2cc1C
inactive: [1] > 100 µM | [19] > 100 µM | [2] > 100 µM | [3] > 100 µM | [4] > 100 µM | [5] > 100 µM | [6] > 100 µM | [7] > 100 µM | [8] > 100 µM | [9] > 100 µM | [10] > 100 µM | [12] > 100 µM | [13] > 100 µM | [14] > 100 µM | [15] > 100 µM | [16] > 100 µM | [20] > 100 µM | [17] > 100 µM | [18] > 100 µM

COc1ccc(NC(=S)c2ccoc2C)cc1CC(=O)OC(C)C
inactive: [1] 34.1 µM | [19] 37.3 µM | [2] 12.4 µM | [3] 43.9 µM | [4] 29.7 µM | [5] 81.5 µM | [6] 29.2 µM | [7] 38.1 µM | [8] 48.3 µM | [10] 67 µM | [11] 31 µM | [12] 36.1 µM | [13] > 100 µM | [14] 33.3 µM | [15] 30.1 µM | [16] 16.7 µM | [17] 26 µM

Cc1c2c(OCC3CCCCO3)nn(C)c(=O)c2c(C)n1-c1ccccc1 (stereo not given)
inactive: [1] 15.1 µM | [19] 20 µM | [2] 23.4 µM | [4] 18.6 µM | [5] 17.7 µM | [6] 21.5 µM | [7] 16.5 µM | [8] 17.7 µM | [9] 16 µM | [10] 17.4 µM | [11] 19.5 µM | [13] 17.4 µM | [14] 20.6 µM | [15] 15.8 µM | [16] 31.6 µM | [17] 16.4 µM | [18] 19.2 µM

COc1cc(OC)c(/C=C/c2cnc3ccccc3n2)c(OC)c1
inactive: [1] > 10 µM | [19] > 10 µM | [2] > 10 µM | [3] > 10 µM | [4] > 10 µM | [5] > 10 µM | [6] > 10 µM | [7] > 10 µM | [8] > 10 µM | [9] > 10 µM | [10] > 10 µM | [11] > 10 µM | [12] > 10 µM | [13] > 10 µM | [14] > 10 µM | [15] > 10 µM | [16] > 10 µM | [17] > 10 µM | [18] > 10 µM

O=P1(c2ccccc2)c2ccccc2CCc2ccccc21
inactive: [1] 44.9 µM | [19] > 100 µM | [2] > 100 µM | [3] 47.9 µM | [4] 56.1 µM | [5] 80.7 µM | [6] 34.2 µM | [7] 45.5 µM | [8] 72.8 µM | [9] 44.4 µM | [11] 38.7 µM | [12] > 100 µM | [14] > 100 µM | [17] 78.7 µM | [18] > 100 µM

CCOc1cccc(/C=N/N=C2\C(=O)Nc3c(Cl)cc(Cl)cc32)c1O
inactive: [1] 64.4 µM | [19] 53.6 µM | [2] > 100 µM | [3] 31.6 µM | [4] > 100 µM | [5] 37.2 µM | [6] > 100 µM | [7] 62.5 µM | [9] > 100 µM | [10] 46.5 µM | [11] 45.7 µM | [12] 75.9 µM | [13] > 100 µM | [14] > 100 µM | [15] 62.8 µM | [16] > 100 µM | [20] 29.4 µM | [17] 58.2 µM | [18] 30.4 µM

Cc1c(C#N)c(=N)oc2ccccc12
inactive: [1] > 100 µM | [19] > 100 µM | [2] > 100 µM | [3] > 10 µM | [4] > 100 µM | [5] > 100 µM | [6] > 100 µM | [7] > 100 µM | [8] > 100 µM | [9] > 100 µM | [10] > 100 µM | [11] > 100 µM | [12] > 100 µM | [13] > 100 µM | [14] > 100 µM | [15] > 100 µM | [16] > 100 µM | [17] > 100 µM | [18] 88.9 µM

CC(C)(C)C1=C(Br)C(F)(C(C)(C)C)OP1(=O)c1ccccc1 (stereo not given)
inactive: [1] 11 µM | [19] 19.1 µM | [2] 15.1 µM | [4] 18.9 µM | [6] 13 µM | [7] 21.6 µM | [8] 18 µM | [9] 11.1 µM | [10] 17.5 µM | [11] 20 µM | [12] 17.5 µM | [13] 20.2 µM | [14] 18.8 µM | [15] 10.1 µM | [16] 19 µM | [20] 11.9 µM | [17] 15.3 µM | [18] 16.3 µM

CC(C)(C)C(=O)Nc1c(C=O)ccc2[nH]cnc12
inactive: [1] 78.7 µM | [19] > 100 µM | [2] > 100 µM | [3] 33.3 µM | [4] 80.4 µM | [5] > 100 µM | [6] 75.7 µM | [7] > 100 µM | [9] > 100 µM | [10] 82.4 µM | [11] > 100 µM | [12] > 100 µM | [13] > 100 µM | [14] > 100 µM | [15] > 100 µM | [18] 61.8 µM

COC(=O)[C@H](Cc1c[nH]c2ccccc12)NP(=O)(O)OC[C@H]1O[C@@H](n2cc(C)c(=O)[nH]c2=O)C[C@@H]1N=[N+]=[N-]
inactive: [1] > 100 µM | [2] > 100 µM | [3] > 100 µM | [4] > 100 µM | [5] > 100 µM | [6] > 100 µM | [7] > 100 µM | [8] > 100 µM | [9] > 100 µM | [10] > 100 µM | [11] > 100 µM | [12] > 100 µM | [13] > 100 µM | [14] > 100 µM | [15] > 100 µM | [16] > 100 µM | [17] > 100 µM | [18] > 100 µM
